Data published in PubChem BioAssay AID1259411 (Chemical Carcinogenesis Research Information System (CCRIS), 2018).
Calls of active or inactive are those of the source. The rule behind the calls is not given here.

System: rodent carcinogenicity bioassays, tumor incidence
Assay: CCRIS carcinogenicity studies
How it was run: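 Archive of carcinogenicity, mutagenicity, tumor promotion and tumor inhibition results drawn from journals, NCI reports and other sources, expert-reviewed; covers 1985-2011 and is no longer updated.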

Clc1ccc(-c2ccc(Cl)c(Cl)c2Cl)c(Cl)c1Cl
carcinogen call (Species: RAT, Strain/Sex: SHERMAN/FEMALE, Route: ORAL, Dose: 100 MG/KG IN DIET, Tumor Site: Type of Lesion: LIVER: NEOPLASTIC NODULE, HEPATOCELLULAR CARCINOMA): active; positive
carcinogen call (Species: RAT, Strain/Sex: SPRAGUE-DAWLEY/FEMALE, Route: ORAL, Dose: 0, 25, 50, 100 PPM IN DIET FOR THE DURATION OF STUDY (STUDY DURATION: 24 MO), Dose: 0, 25, 50, 100 PPM IN DIET FOR THE DURATION OF STUDY (STUDY DURATION: 24 MO), Tumor Site: Type of Lesion: LIVER: TUMOR): active; positive
carcinogen call (Species: RAT, Strain/Sex: SPRAGUE-DAWLEY/FEMALE, Route: ORAL, Dose: 0, 100 PPM IN DIET FOR 16 MO AND 50 PPM FOR AN ADDITIONAL 8 MO FOLLOWED BY CONTROL DIET FOR 5 MO (STUDY DURATION: 29 MO), Tumor Site: Type of Lesion: LIVER: TRABECULAR CARCINOMA, ADENOCARCINOMA): active; positive
carcinogen call (Species: RAT, Strain/Sex: SPRAGUE-DAWLEY/MALE, Route: ORAL, Dose: 0, 25, 50, 100 PPM IN DIET FOR THE DURATION OF STUDY (STUDY DURATION: 24 MO), Dose: 0, 25, 50, 100 PPM IN DIET FOR THE DURATION OF STUDY (STUDY DURATION: 24 MO), Tumor Site: Type of Lesion: THYROID GLAND: ADENOMA OR CARCINOMA, LIVER: TUMOR): active; positive
carcinogen call (Species: RAT, Strain/Sex: SPRAGUE-DAWLEY/MALE, Route: ORAL, Dose: 0, 100 PPM IN DIET FOR 16 MO AND 50 PPM FOR AN ADDITIONAL 8 MO FOLLOWED BY CONTROL DIET FOR 5 MO (STUDY DURATION: 29 MO)): inactive; negative
carcinogen call (Species: RAT, Strain/Sex: WISTAR/MALE, Route: ORAL, Dose: 0, 50, 100 PPM IN A 10% PROTEIN DIET FOR 4 MO (STUDY DURATION: 4 MO), Dose: 0, 50, 100 PPM IN A 10% PROTEIN DIET FOR 4 MO (STUDY DURATION: 4 MO), Tumor Site: Type of Lesion: THYMUS: NEOPLASM, SPLEEN: NEOPLASM): active; positive

O=c1ccc2ccc3occc3c2o1
carcinogen call (Species: MOUSE, Strain/Sex: C3H/HEN/FEMALE, Route: DERMAL, Dose: 215 UG IN 70% ETHANOL 3/WK FOR 48 WK (STUDY DURATION: 68 WK)): inactive; negative

CNC(=O)c1c(N(C)N=O)ncn1C
carcinogen call (Species: RAT, Strain/Sex: BD-IX/MALE, FEMALE, Route: ORAL, Dose: 0, 3, 5, 15 MG/KG/D IN DRINKING WATER 5D/WK FOR DURATION OF STUDY (STUDY DURATION: LIFETIME), Dose: 0, 3, 5, 15 MG/KG/D IN DRINKING WATER 5D/WK FOR DURATION OF STUDY (STUDY DURATION: LIFETIME), Tumor Site: Type of Lesion: NASAL CAVITY: TUMOR): active; positive

CC(C)n1c(/C=C/[C@H](O)C[C@H](O)CC(=O)O)c(-c2ccc(F)cc2)c2ccccc21
carcinogen call (Species: MOUSE, Strain/Sex: CD-1/FEMALE (70/GROUP), Route: ORAL (GAVAGE), Dose: 0, 0.3, 15, 30 MG/KG/D IN 1% CARBOXYMETHYLCELLULOSE FOR 85 WK, Dose: 0, 0.3, 15, 30 MG/KG/D IN 1% CARBOXYMETHYLCELLULOSE FOR 85 WK, Tumor Site: Type of Lesion: FORESTOMACH: SQUAMOUS PAPILLOMAS): active; positive
carcinogen call (Species: MOUSE, Strain/Sex: CD-1/FEMALE (80/GROUP), Route: ORAL (GAVAGE), Dose: 0, 50, 150, 350 MG/KG/D IN 1% CARBOXYMETHYLCELLULOSE FOR 93 WK, Dose: 0, 50, 150, 350 MG/KG/D IN 1% CARBOXYMETHYLCELLULOSE FOR 93 WK): inactive; negative
carcinogen call (Species: MOUSE, Strain/Sex: CD-1/FEMALE, Route: GAVAGE, Dose: 0, 0.3, 15, 30 MG/KG/D FOR 52 OR 85 WK (STUDY DURATION: 86 WK), Dose: 0, 0.3, 15, 30 MG/KG/D FOR 52 OR 85 WK (STUDY DURATION: 86 WK), Tumor Site: Type of Lesion: FORESTOMACH: PAPILLOMA): active; positive
carcinogen call (Species: MOUSE, Strain/Sex: CD-1/FEMALE, Route: GAVAGE, Dose: 0, 50, 150, 350 MG/KG/D FOR 52 OR 84 WK (HIGH DOSE GROUP TERMINATED IN WK 23) (STUDY DURATION: 93 WK), Dose: 0, 50, 150, 350 MG/KG/D FOR 52 OR 84 WK (HIGH DOSE GROUP TERMINATED IN WK 23) (STUDY DURATION: 93 WK)): inactive; negative
carcinogen call (Species: MOUSE, Strain/Sex: CD-1/MALE (70/GROUP), Route: ORAL (GAVAGE), Dose: 0, 0.3, 15, 30 MG/KG/D IN 1% CARBOXYMETHYLCELLULOSE FOR 85 WK, Dose: 0, 0.3, 15, 30 MG/KG/D IN 1% CARBOXYMETHYLCELLULOSE FOR 85 WK): inactive; negative
carcinogen call (Species: MOUSE, Strain/Sex: CD-1/MALE (80/GROUP), Route: ORAL (GAVAGE), Dose: 0, 50, 150, 350 MG/KG/D IN 1% CARBOXYMETHYLCELLULOSE FOR 84 WK, Dose: 0, 50, 150, 350 MG/KG/D IN 1% CARBOXYMETHYLCELLULOSE FOR 84 WK): inactive; negative
carcinogen call (Species: MOUSE, Strain/Sex: CD-1/MALE, Route: GAVAGE, Dose: 0, 0.3, 15, 30 MG/KG/D FOR 52 OR 85 WK (STUDY DURATION: 86 WK), Dose: 0, 0.3, 15, 30 MG/KG/D FOR 52 OR 85 WK (STUDY DURATION: 86 WK)): inactive; negative
carcinogen call (Species: MOUSE, Strain/Sex: CD-1/MALE, Route: GAVAGE, Dose: 0, 50, 150, 350 MG/KG/D FOR 52 OR 84 WK (HIGH DOSE GROUP TERMINATED IN WK 23) (STUDY DURATION: 84 WK), Dose: 0, 50, 150, 350 MG/KG/D FOR 52 OR 84 WK (HIGH DOSE GROUP TERMINATED IN WK 23) (STUDY DURATION: 84 WK)): inactive; negative
carcinogen call (Species: RAT, Strain/Sex: CD (SPRAGUE-DAWLEY)/FEMALE (75/GROUP), Route: ORAL (GAVAGE), Dose: 0, 0.03, 0.3, 3 MG/KG/D IN 1% CARBOXYMETHYLCELLULOSE FOR 101 WKS, Dose: 0, 0.03, 0.3, 3 MG/KG/D IN 1% CARBOXYMETHYLCELLULOSE FOR 101 WKS): inactive; negative
carcinogen call (Species: RAT, Strain/Sex: CD (SPRAGUE-DAWLEY)/FEMALE (75/GROUP), Route: ORAL (GAVAGE), Dose: 0, 6, 9, 18-24 MG/KG/D IN 1% CARBOXYMETHYLCELLULOSE FOR 104 WKS, Dose: 0, 6, 9, 18-24 MG/KG/D IN 1% CARBOXYMETHYLCELLULOSE FOR 104 WKS): inactive; negative
carcinogen call (Species: RAT, Strain/Sex: CD (SPRAGUE-DAWLEY)/MALE (75/GROUP), Route: ORAL (GAVAGE), Dose: 0, 0.03, 0.3, 3 MG/KG/D IN 1% CARBOXYMETHYLCELLULOSE FOR 95 WKS, Dose: 0, 0.03, 0.3, 3 MG/KG/D IN 1% CARBOXYMETHYLCELLULOSE FOR 95 WKS): inactive; negative
carcinogen call (Species: RAT, Strain/Sex: CD (SPRAGUE-DAWLEY)/MALE (75/GROUP), Route: ORAL (GAVAGE), Dose: 0, 6, 9, 18-24 MG/KG/D IN 1% CARBOXYMETHYLCELLULOSE FOR 104 WKS, Dose: 0, 6, 9, 18-24 MG/KG/D IN 1% CARBOXYMETHYLCELLULOSE FOR 104 WKS, Tumor Site: Type of Lesion: THYROID: FOLLICULAR ADENOMA (11/75)): active; positive
carcinogen call (Species: RAT, Strain/Sex: STRAIN-CD/FEMALE, Route: GAVAGE, Dose: 0, 0.03, 0.3, 3 MG/KG/D FOR 95 WK (STUDY DURATION: 114 WK), Dose: 0, 0.03, 0.3, 3 MG/KG/D FOR 95 WK (STUDY DURATION: 114 WK)): inactive; negative
carcinogen call (Species: RAT, Strain/Sex: STRAIN-CD/FEMALE, Route: GAVAGE, Dose: 0, 6, 9, 18-24 MG/KG/D FOR 104 WK (STUDY DURATION: 104 WK), Dose: 0, 6, 9, 18-24 MG/KG/D FOR 104 WK (STUDY DURATION: 104 WK)): inactive; negative
carcinogen call (Species: RAT, Strain/Sex: STRAIN-CD/MALE, Route: GAVAGE, Dose: 0, 0.03, 0.3, 3 MG/KG/D FOR 95 WK (STUDY DURATION: 114 WK), Dose: 0, 0.03, 0.3, 3 MG/KG/D FOR 95 WK (STUDY DURATION: 114 WK)): inactive; negative
carcinogen call (Species: RAT, Strain/Sex: STRAIN-CD/MALE, Route: GAVAGE, Dose: 0, 6, 9, 18-24 MG/KG/D FOR 104 WK (STUDY DURATION: 104 WK), Dose: 0, 6, 9, 18-24 MG/KG/D FOR 104 WK (STUDY DURATION: 104 WK)): inactive; negative

C[C@]12CC[C@@H]3c4ccc(OC(=O)c5ccccc5)cc4CC[C@H]3[C@@H]1CC[C@@H]2O
carcinogen call (Species: MOUSE, Route: SUBCUTANEOUS, Tumor Site: Type of Lesion: TESTES, PITUITARY GLAND, CERVIX, UTERUS, Tumor Site: Type of Lesion: TESTES, PITUITARY GLAND, CERVIX, UTERUS): active; positive
carcinogen call (Species: RAT, Route: SUBCUTANEOUS IMPLANT, Tumor Site: Type of Lesion: PITUITARY GLAND): active; positive

CCC[CH2][Sn]([CH2]CCC)([O]C(C)=O)[O]C(C)=O
carcinogen call (Species: MOUSE, Strain/Sex: B6C3F1/FEMALE, Route: ORAL, Dose: 0, 76, 152 PPM IN DIET, TWA, Dose: 0, 76, 152 PPM IN DIET, TWA): inactive; negative
carcinogen call (Species: MOUSE, Strain/Sex: B6C3F1/MALE, Route: ORAL, Dose: 0, 76, 152 PPM IN DIET, TWA, Dose: 0, 76, 152 PPM IN DIET, TWA): inactive; negative
carcinogen call (Species: RAT, Strain/Sex: F344/MALE, Route: ORAL, Dose: 0, 66.5, 133 PPM IN DIET, TWA, Dose: 0, 66.5, 133 PPM IN DIET, TWA): inactive; negative

Cc1cc(=O)n(-c2ccccc2)n1C
carcinogen call (Species: RAT, Strain/Sex: SPRAGUE-DAWLEY/MALE, Route: ORAL, Dose: 0, 0.535% IN DIET FOR 117 WK, Tumor Site: Type of Lesion: KIDNEY): active; positive
